≈ marks a conversion by molar mass, not a printed value.
Key:
Format in all cases: functional
[1] = system: Mycobacterium tuberculosis; test: Antimycobacterial activity against patient-derived multidrug-resistant Mycobacterium tuberculosis 2712 measured after 7 days by resazurin dye-based assay; settings: Mycobacterium tuberculosis, 2712, 168 h
[2] = system: Mycobacterium tuberculosis; test: Antimycobacterial activity against patient-derived multidrug-resistant Mycobacterium tuberculosis 5023 measured after 7 days by resazurin dye-based assay; settings: Mycobacterium tuberculosis, 5023, 168 h
[3] = system: Mycobacterium tuberculosis; test: Antimycobacterial activity against patient-derived multidrug-resistant Mycobacterium tuberculosis 7106 measured after 7 days by resazurin dye-based assay; settings: Mycobacterium tuberculosis, 7106, 168 h

SMILES	MIC [1] [µg/mL]	MIC [2] [µg/mL]	MIC [3] [µg/mL]
Cc1ccc(CC2CCOC3(CCN(C(=O)c4ccc([N+](=O)[O-])o4)CC3)C2)cc1 (stereo unspecified)	100 (≈ 251 µM)	3.1 (≈ 7.78 µM)	100 (≈ 251 µM)
COc1ccc(CC2CCOC3(CCN(C(=O)c4ccc([N+](=O)[O-])o4)CC3)C2)cc1 (stereo unspecified)	6.2 (≈ 15 µM)	3.1 (≈ 7.48 µM)	3.1 (≈ 7.48 µM)
COCCc1noc(CC2CCOC3(CCN(C(=O)c4ccc([N+](=O)[O-])o4)CC3)C2)n1 (stereo unspecified)	12.5 (≈ 28.8 µM)	12.5 (≈ 28.8 µM)	25 (≈ 57.5 µM)
O=C(c1ccc([N+](=O)[O-])o1)N1CCC2(CC1)CC(Cc1nc(C3CC3)no1)CCO2 (stereo unspecified)	3.1 (≈ 7.44 µM)	12.5 (≈ 30 µM)	6.2 (≈ 14.9 µM)
O=C(c1ccc([N+](=O)[O-])o1)N1CCC2(CC1)CC(Cc1nc(-c3cccnc3)no1)CCO2 (stereo unspecified)	1.6 (≈ 3.53 µM)	3.1 (≈ 6.84 µM)	6.2 (≈ 13.7 µM)
O=C(c1ccc([N+](=O)[O-])o1)N1CCC2(CC1)CC(OCc1ccc(F)cc1)CCO2 (stereo unspecified)	25 (≈ 59.7 µM)	6.2 (≈ 14.8 µM)	6.2 (≈ 14.8 µM)
O=C(c1ccc([N+](=O)[O-])o1)N1CCC2(CCCCO2)CC1	6.2 (≈ 21.1 µM)	25 (≈ 84.9 µM)	25 (≈ 84.9 µM)

Source: ChEMBL document CHEMBL4316589, “Attachment of a 5-nitrofuroyl moiety to spirocyclic piperidines produces non-toxic nitrofurans that are efficacious in vitro against multidrug-resistant Mycobacterium tuberculosis” (Eur J Med Chem, 2019)
